# Assay results as given in US20240132484A1, “BROAD SPECTRUM ANTIVIRAL COMPOUNDS TARGETING THE SKI COMPLEX” (priority 2020, published 2024).
# Several values for one entry are separate records, joined by “and”; a condition that tells them apart may be missing. Equal entries are not always repeated. Where two headings read alike, the source gives them in different places.
# How the values were obtained:
# SARS2 = assay type: cell-based, SARS-CoV-2; details: for Percentage Inhibition Average 1 μM / Screening data (Relative infection to DMSO controls) Average 1 μM: SARS2, 1 μM; for Screening data (Relative infection to DMSO controls) Average 1 μM / Screening data (Relative infection to DMSO controls) Average 5 μM / Screening data (Relative infection to DMSO controls) Average 10 μM / Screening data (Relative infection to DMSO controls) Average 25 μM / Screening data (Relative infection to DMSO controls) Average 50 μM / Average (relative infection to DMSO over the 5 tested concentrations): 100=DMSO control; for Percentage Inhibition Average 5 μM / Screening data (Relative infection to DMSO controls) Average 5 μM: SARS2, 5 μM; for Percentage Inhibition Average 10 μM / Screening data (Relative infection to DMSO controls) Average 10 μM: SARS2, 10 μM; for Percentage Inhibition Average 25 μM / Screening data (Relative infection to DMSO controls) Average 25 μM: SARS2, 25 μM; for Percentage Inhibition Average 50 μM / Screening data (Relative infection to DMSO controls) Average 50 μM: SARS2, 50 μM; for Average (relative infection to DMSO over the 5 tested concentrations): SARS2, average over 1 to 50 uM; for Infection Data: Percentage Infection Relative to Appropriate DMSO Control: avg background subtraction, replicate wells; for Infection Data: Average, Mean: average of Exp 1-3 (SMW475, SMW477, SMW478), n 9
# cells (nuclei count) = details: for Toxicity Data: Average, Mean: n 9; for Relative cell count to DMSO controls, Average 1 μM / Relative cell count to DMSO controls, Average 5 μM / Relative cell count to DMSO controls, Average 10 μM / Relative cell count to DMSO controls, Average 25 μM / Relative cell count to DMSO controls, Average 50 μM: toxicity data, 100=DMSO control; for Relative cell count to DMSO controls, Average (for correlation analysis): average value over the 5 tested concentrations (1 to 50 uM)
# [1] = 1 uM, average of Exp 1-3 (SMW454, SMW466, SMW480)
# [2] = 5 uM, average of Exp 1-3 (SMW454, SMW466, SMW480)
# [3] = 10 uM, average of Exp 1-3 (SMW454, SMW466, SMW480)
# [4] = 25 uM, average of Exp 1-3 (SMW454, SMW466, SMW480)
# [5] = 50 uM, average of Exp 1-3 (SMW454, SMW466, SMW480)
smiles,measurement,setting,value
CN(C)CCN(Cc1ccsc1)Cc1ccco1 [SILCS12],"Percentage Infection Relative to DMSO Control, Average, Mean",SARS2,76.66% and 135.12% and 110.30% and 109.01% and 120.43%
same,Percentage Inhibition Average 1 μM,SARS2,−20.43%
same,Screening data (Relative infection to DMSO controls) Average 1 μM,SARS2,120.43
same,Percentage Inhibition Average 5 μM,SARS2,−9.01%
same,Screening data (Relative infection to DMSO controls) Average 5 μM,SARS2,109.01
same,Percentage Inhibition Average 10 μM,SARS2,−10.30%
same,Screening data (Relative infection to DMSO controls) Average 10 μM,SARS2,110.30
same,Percentage Inhibition Average 25 μM,SARS2,−35.12%
same,Screening data (Relative infection to DMSO controls) Average 25 μM,SARS2,135.12
same,Percentage Inhibition Average 50 μM,SARS2,23.34%
same,Screening data (Relative infection to DMSO controls) Average 50 μM,SARS2,76.66
same,Average (relative infection to DMSO over the 5 tested concentrations),SARS2,110.30
same,"Toxicity Data: Average, Mean",cells (nuclei count); [1],103.58%
same,"Relative cell count to DMSO controls, Average 1 μM",cells (nuclei count),103.58
same,"Toxicity Data: Average, Mean",cells (nuclei count); [2],102.70%
same,"Relative cell count to DMSO controls, Average 5 μM",cells (nuclei count),102.7
same,"Toxicity Data: Average, Mean",cells (nuclei count); [3],96.10%
same,"Relative cell count to DMSO controls, Average 10 μM",cells (nuclei count),96.1
same,"Toxicity Data: Average, Mean",cells (nuclei count); [4],95.34%
same,"Relative cell count to DMSO controls, Average 25 μM",cells (nuclei count),95.34
same,"Toxicity Data: Average, Mean",cells (nuclei count); [5],66.97%
same,"Relative cell count to DMSO controls, Average 50 μM",cells (nuclei count),66.97
same,"Relative cell count to DMSO controls, Average (for correlation analysis)",cells (nuclei count),92.94
Cc1ccc(CN(CCN(C)C)Cc2ccc(CO)o2)s1 [SILCS13],"Percentage Infection Relative to DMSO Control, Average, Mean",SARS2,85.64% and 142.17% and 120.89% and 97.87% and 94.70%
same,Percentage Inhibition Average 1 μM,SARS2,5.30%
same,Screening data (Relative infection to DMSO controls) Average 1 μM,SARS2,94.70
same,Percentage Inhibition Average 5 μM,SARS2,2.13%
same,Screening data (Relative infection to DMSO controls) Average 5 μM,SARS2,97.87
same,Percentage Inhibition Average 10 μM,SARS2,−20.89%
same,Screening data (Relative infection to DMSO controls) Average 10 μM,SARS2,120.89
same,Percentage Inhibition Average 25 μM,SARS2,−42.17%
same,Screening data (Relative infection to DMSO controls) Average 25 μM,SARS2,142.17
same,Percentage Inhibition Average 50 μM,SARS2,14.36%
same,Screening data (Relative infection to DMSO controls) Average 50 μM,SARS2,85.64
same,Average (relative infection to DMSO over the 5 tested concentrations),SARS2,108.25
same,"Toxicity Data: Average, Mean",cells (nuclei count); [1],105.73%
same,"Relative cell count to DMSO controls, Average 1 μM",cells (nuclei count),105.73
same,"Toxicity Data: Average, Mean",cells (nuclei count); [2],107.19%
same,"Relative cell count to DMSO controls, Average 5 μM",cells (nuclei count),107.19
same,"Toxicity Data: Average, Mean",cells (nuclei count); [3],105.25%
same,"Relative cell count to DMSO controls, Average 10 μM",cells (nuclei count),105.25
same,"Toxicity Data: Average, Mean",cells (nuclei count); [4],104.32%
same,"Relative cell count to DMSO controls, Average 25 μM",cells (nuclei count),104.32
same,"Toxicity Data: Average, Mean",cells (nuclei count); [5],78.61%
same,"Relative cell count to DMSO controls, Average 50 μM",cells (nuclei count),78.61
same,"Relative cell count to DMSO controls, Average (for correlation analysis)",cells (nuclei count),100.22
Cc1cc(CN(CCN(C)C)Cc2ccncc2)sc1Br [SILCS14],Infection Data: Percentage Infection Relative to Appropriate DMSO Control,"SARS2; 1 uM, Exp 1 (SMW475)",112.00% and 92.09% and 122.87%
same,Infection Data: Percentage Infection Relative to Appropriate DMSO Control,"SARS2; 1 uM, Exp 2 (SMW477)",91.97% and 93.96% and 99.35%
same,Infection Data: Percentage Infection Relative to Appropriate DMSO Control,"SARS2; 1 uM, Exp 3 (SMW478)",112.26% and 106.71% and 118.52%
same,"Infection Data: Average, Mean",SARS2; 1 uM,105.53%
same,Infection Data: Percentage Infection Relative to Appropriate DMSO Control,"SARS2; 5 uM, Exp 1 (SMW475)",112.88% and 98.55% and 115.50%
same,Infection Data: Percentage Infection Relative to Appropriate DMSO Control,"SARS2; 5 uM, Exp 2 (SMW477)",105.78% and 98.21% and 86.55%
same,Infection Data: Percentage Infection Relative to Appropriate DMSO Control,"SARS2; 5 uM, Exp 3 (SMW478)",109.15% and 113.38% and 106.22%
same,"Infection Data: Average, Mean",SARS2; 5 uM,105.13%
same,Infection Data: Percentage Infection Relative to Appropriate DMSO Control,"SARS2; 10 uM, Exp 1 (SMW475)",92.53% and 120.55% and 101.62%
same,Infection Data: Percentage Infection Relative to Appropriate DMSO Control,"SARS2; 10 uM, Exp 2 (SMW477)",84.89% and 81.65% and 69.99%
same,Infection Data: Percentage Infection Relative to Appropriate DMSO Control,"SARS2; 10 uM, Exp 3 (SMW478)",92.27% and 101.81% and 99.27%
same,"Infection Data: Average, Mean",SARS2; 10 uM,93.84%
same,Infection Data: Percentage Infection Relative to Appropriate DMSO Control,"SARS2; 25 uM, Exp 1 (SMW475)",11.84% and 13.81% and 11.60%
same,Infection Data: Percentage Infection Relative to Appropriate DMSO Control,"SARS2; 25 uM, Exp 2 (SMW477)",19.70% and 19.93% and 22.53%
same,Infection Data: Percentage Infection Relative to Appropriate DMSO Control,"SARS2; 25 uM, Exp 3 (SMW478)",9.11% and 11.10% and 12.21%
same,"Infection Data: Average, Mean",SARS2; 25 uM,14.65%
same,Infection Data: Percentage Infection Relative to Appropriate DMSO Control,"SARS2; 50 uM, Exp 1 (SMW475)",2.09% and 3.52% and 1.22%
same,Infection Data: Percentage Infection Relative to Appropriate DMSO Control,"SARS2; 50 uM, Exp 2 (SMW477)",1.91% and −0.25% and −0.24%
same,Infection Data: Percentage Infection Relative to Appropriate DMSO Control,"SARS2; 50 uM, Exp 3 (SMW478)",3.06% and 0.62% and 3.25%
same,"Infection Data: Average, Mean",SARS2; 50 uM,1.69%
same,Percentage Inhibition Average 1 μM,SARS2,−5.53%
same,Screening data (Relative infection to DMSO controls) Average 1 μM,SARS2,105.53
same,Percentage Inhibition Average 5 μM,SARS2,−5.13%
same,Screening data (Relative infection to DMSO controls) Average 5 μM,SARS2,105.13
same,Percentage Inhibition Average 10 μM,SARS2,6.16%
same,Screening data (Relative infection to DMSO controls) Average 10 μM,SARS2,93.84
same,Percentage Inhibition Average 25 μM,SARS2,85.35%
same,Screening data (Relative infection to DMSO controls) Average 25 μM,SARS2,14.65
same,Percentage Inhibition Average 50 μM,SARS2,98.31%
same,Screening data (Relative infection to DMSO controls) Average 50 μM,SARS2,1.69
same,Average (relative infection to DMSO over the 5 tested concentrations),SARS2,64.17
same,"Toxicity Data: Average, Mean","cells (nuclei count); 1 uM, average of Exp 1-3 (SMW475, SMW477, SMW478)",105.49%
same,"Relative cell count to DMSO controls, Average 1 μM",cells (nuclei count),105.49
same,"Toxicity Data: Average, Mean","cells (nuclei count); 5 uM, average of Exp 1-3 (SMW475, SMW477, SMW478)",103.93%
same,"Relative cell count to DMSO controls, Average 5 μM",cells (nuclei count),103.93
same,"Toxicity Data: Average, Mean","cells (nuclei count); 10 uM, average of Exp 1-3 (SMW475, SMW477, SMW478)",108.29%
same,"Relative cell count to DMSO controls, Average 10 μM",cells (nuclei count),108.29
same,"Toxicity Data: Average, Mean","cells (nuclei count); 25 uM, average of Exp 1-3 (SMW475, SMW477, SMW478)",139.75%
same,"Relative cell count to DMSO controls, Average 25 μM",cells (nuclei count),139.75
same,"Toxicity Data: Average, Mean","cells (nuclei count); 50 uM, average of Exp 1-3 (SMW475, SMW477, SMW478)",16.80%
same,"Relative cell count to DMSO controls, Average 50 μM",cells (nuclei count),16.8
same,"Relative cell count to DMSO controls, Average (for correlation analysis)",cells (nuclei count),94.85
